The text below walks through data of patent US10703764B2, “Benzopiperazine compositions as BET bromodomain inhibitors” (FORMA Therapeutics, Inc., priority 2013, dated 2020).

The test system of one experiment is MV4-11 cells. The experiment can be described thus: Oncology cell growth assay (3-day proliferation, CellTiter-Glo). It counts as cell-based. The note with it: Homo sapiens, MV4-11, 72 h, AML cell line MV4-11, 72 hours, compounds grouped by IC50 range, read-out: MV4-11 IC50 (inhibition of proliferation, gIC50). The procedure, abridged: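 MV4-11 AML cells (RPMI 1640, 10% FBS) plated at 3000 cells/well and exposed 72 h to compound at final 10 to 0.0045 μM (3-fold series). Viability read by CellTiter-Glo luminescence; gIC50 from four-parameter logistic fit between DMSO control and no-cell background.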
In general terms: Cellular ATP, detected with luciferase, serves as a proxy for viable cell number.

In the next experiment the target is T1, BRD4 BD2 (Homo sapiens, UniProt O60885).
T1 construct: made in house
The experiment can be described thus: AlphaScreen binding assay, BRD4 Bromodomain 2. The procedure, abridged: (§1)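 Compound dilution series were mixed with His-tagged BRD4 bromodomain and biotinylated tetra-acetylated H4 (1-21) peptide at pH 7.3 (BD1 and peptide at 50 nM, BD2 and peptide at 100 nM). Donor and acceptor beads were then added, and plates were equilibrated at least 1 h before reading. IC50 values were fitted with a four-parameter logistic model.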
In general terms: In Alpha technology, singlet oxygen from a donor bead excites a nearby acceptor bead.

For a further experiment, the target named is T2, BRD4 BD1 (Homo sapiens, UniProt O60885).
T2 construct: made in house
As to the kind of experiment: AlphaScreen binding assay, BRD4 Bromodomain 1. In short, it runs like this: as §1

Bounds are passed on as bounds.

With `CC(=O)N1c2cc(Cl)c(-c3cnn(C4CC4)c3)cc2N(C(=O)OC(C)C)C[C@@H]1C` [Example I-208, Isopropyl (S)-4-acetyl-6-chloro-7-(1-cyclopropyl-1H-pyrazol-4-yl)-3-methyl-3,4-dihydroquinoxaline-1 (2H)-carboxylate], the IC50 in the experiment on MV4-11 cells is more than 500 nM; at BRD4 BD2 it was more than 500 nM; at BRD4 BD1, 1000 to 10000 nM.
For the molecule `CC(=O)N1c2ccc(-c3cnn(C4CCCS(=O)(=O)C4)c3)cc2N(C(=O)OC(C)C)C[C@@H]1C` (stereo partly drawn) [Example I-1311], the IC50 lay in the range of 100 to 500 nM with MV4-11 cells, 50 to 500 nM at BRD4 BD2 and 100 to 1000 nM on BRD4 BD1.
Take `CC(C)OC(=O)N1C[C@H](C)N(C(=O)C2CC2)c2ccc(-c3ccc(C(=O)N4CC[C@@H](N(C)C)C4)cc3)cc21` [Example I-564]: the IC50 in the experiment with MV4-11 cells fell in the range of 100 to 500 nM; at BRD4 BD2, 50 to 500 nM; at BRD4 BD1 it was 100 to 1000 nM.
Turning to `CCOC(=O)N1C[C@H](C)N(C(C)=O)c2ccc(-c3cn[nH]c3)cc21` [Example I-19, (S)-ethyl 4-acetyl-3-methyl-7-(1H-pyrazol-4-yl)-3,4-dihydroquinoxaline-1(2H)-carboxylate], the IC50 lay within 100 to 500 nM in the experiment on MV4-11 cells, 50 to 500 nM at BRD4 BD2 and 1000 to 10000 nM at BRD4 BD1.
In the case of `CC(=O)N1c2ccc(-c3cnn(C4COC4)c3)cc2N(C(=O)OCC(Cl)Cl)C[C@@H]1C` [Example I-62, (S)-2,2-dichloroethyl 4-acetyl-3-methyl-7-(1-(oxetan-3-yl)-1H-pyrazol-4-yl)-3,4-dihydroquinoxaline-1(2H)-carboxylate], the IC50 in the experiment with MV4-11 cells was 100 to 500 nM; on BRD4 BD2, 50 to 500 nM; on BRD4 BD1, 100 to 1000 nM.
In the same order, the values of `CC(=O)N1c2ccc(-c3cnn(C4COC4)c3)cc2N(C(=O)OC(C)C)C[C@@H]1C` [Example I-144, (S)-isopropyl 4-acetyl-3-methyl-7-(1-(oxetan-3-yl)-1H-pyrazol-4-yl)-3,4-dihydroquinoxaline-1(2H)-carboxylate] are 100 to 500 nM, less than 50 nM and less than 100 nM.
In the same order, the values of `CC(=O)N1c2ccc(-c3ccc(C(=O)N4CCNCC4)cc3)cc2N(C(=O)c2ccco2)C[C@@H]1C` [Example I-422] are 100 to 500 nM, less than 50 nM and 100 to 1000 nM.
`CC(=O)N1c2ccc(-c3ccc(S(C)(=O)=O)cc3)cc2N(C(=O)OCC2CC2)C[C@@H]1C` [Example I-495]: the IC50 in the experiment on MV4-11 cells was 100 to 500 nM; at BRD4 BD2, more than 500 nM; at BRD4 BD1 it was 100 to 1000 nM.
As to `CC(=O)N1c2ccc(-c3cnn(C4CC4)c3)cc2N(C(=O)OCCC(F)(F)F)C[C@@H]1C` [Example I-78, (S)-3,3,3-trifluoropropyl 4-acetyl-7-(1-cyclopropyl-1H-pyrazol-4-yl)-3-methyl-3,4-dihydroquinoxaline-1(2H)-carboxylate], the IC50 in the experiment with MV4-11 cells lay in the range of 100 to 500 nM; at BRD4 BD2, 50 to 500 nM; at BRD4 BD1, 100 to 1000 nM.
With `CC(=O)N1c2ccc(-c3cnn(CCC#N)c3)cc2N(C(=O)C2CC2)C[C@@H]1C` [Example I-650], the IC50 was 100 to 500 nM with MV4-11 cells, 50 to 500 nM at BRD4 BD2 and 100 to 1000 nM at BRD4 BD1.
Regarding `COC(=O)N1c2ccc(-c3cnn(CC4CCS(=O)(=O)CC4)c3)cc2N(C(=O)OC(C)C)C[C@@H]1C` [Example I-624], the IC50 in the experiment on MV4-11 cells was more than 500 nM; on BRD4 BD2, 50 to 500 nM; at BRD4 BD1 it was 100 to 1000 nM.
Take `CC(=O)N1c2ccc(-c3cnn(C4CC4)c3)cc2N(C(=O)Oc2cccc3cccnc23)C[C@@H]1C` [Example I-1195]: the values for the IC50 with MV4-11 cells, on BRD4 BD2 and at BRD4 BD1 were less than 100 nM, less than 50 nM and 100 to 1000 nM, respectively.
With `CCOC(=O)N1C[C@H](C)N(C(C)=O)c2ccc(-c3ccc(S(=O)(=O)CC4CC4)cc3)cc21` [Example I-1076], the IC50 in the experiment with MV4-11 cells was more than 500 nM; on BRD4 BD2, 50 to 500 nM; at BRD4 BD1 it was 1000 to 10000 nM.
In the same order, the values of `CCOC(=O)N1C[C@H](C)N(C(C)=O)c2ccc(-c3ccc(S(=O)(=O)N(C)C)cc3)cc21` [Example I-1125] are 100 to 500 nM, 50 to 500 nM and 1000 to 10000 nM.
As for `CC(=O)N1c2ccc(-c3c[nH]nc3C)cc2N(C(=O)OC(C)C)CC1C` (stereo not drawn) [Example I-337], the IC50 in the experiment on MV4-11 cells was more than 500 nM; on BRD4 BD2 it was more than 500 nM; on BRD4 BD1, 100 to 1000 nM.
In the case of `CC(=O)N1c2ccc(-c3cnn(Cc4nonc4C)c3)cc2N(C(=O)C2CC2)C[C@@H]1C` [Example I-147, (S)-1-(4-(cyclopropanecarbonyl)-2-methyl-6-(1-((4-methyl-1,2,5-oxadiazol-3-yl)methyl)-1H-pyrazol-4-yl)-3,4-dihydroquinoxalin-1 (2H)-yl)ethanone], the IC50 in the experiment with MV4-11 cells lay within 100 to 500 nM; on BRD4 BD2, 50 to 500 nM; on BRD4 BD1, 100 to 1000 nM.
For `CC(=O)N1c2ccc(-c3cnn(C4CC4)c3)cc2N(c2n[nH]c3ccccc23)C[C@@H]1C` [Example I-93, (S)-1-(6-(1-cyclopropyl-1H-pyrazol-4-yl)-4-(1H-indazol-3-yl)-2-methyl-3,4-dihydroquinoxalin-1 (2H)-yl)ethan-1-one], the IC50 with MV4-11 cells was less than 100 nM; on BRD4 BD2 it was 50 to 500 nM; at BRD4 BD1, 100 to 1000 nM.
In the same order, the values of `CC(=O)N1c2ccc(-c3ccc(S(C)(=O)=O)c(F)c3)cc2N(C(=O)C2CCC2)C[C@@H]1C` [Example I-1083] are more than 500 nM, 50 to 500 nM and 1000 to 10000 nM.
As to `CCS(=O)(=O)c1cccc(-c2ccc3c(c2)N(C(=O)OC2CCOCC2)C[C@H](C)N3C(C)=O)c1` [Example I-1246], the results for the IC50 in the experiment on MV4-11 cells, at BRD4 BD2 and at BRD4 BD1 were 100 to 500 nM, 50 to 500 nM and 100 to 1000 nM, respectively.
Take `CC(=O)N1c2ccc(-c3ccc(S(=O)(=O)NCCO)cc3)cc2N(C(=O)OC2CCOCC2)C[C@@H]1C` [Example I-1218]: the IC50 fell in the range of 100 to 500 nM in the experiment on MV4-11 cells, 50 to 500 nM on BRD4 BD2 and 100 to 1000 nM at BRD4 BD1.
Turning to `CC(C)OC(=O)N1C[C@H](C)N(C(=O)C2CC2)c2ccc(-c3ccc(C(=O)N4CCNCC4)cc3)cc21` [Example I-558], the IC50 with MV4-11 cells was 100 to 500 nM; at BRD4 BD2 it was 50 to 500 nM; on BRD4 BD1, 100 to 1000 nM.
With `CC(=O)N1c2ccc(-c3ccc(C(=O)N4CCN(C=O)CC4)cc3)cc2N(C(=O)OC(C)C)C[C@@H]1C` [Example I-545], the IC50 in the experiment on MV4-11 cells lay in the range of 100 to 500 nM; on BRD4 BD2, 50 to 500 nM; on BRD4 BD1, 100 to 1000 nM.
With `CC(=O)N1c2cc(C#N)c(-c3ccc(S(C)(=O)=O)cc3)cc2N(C(=O)OC(C)C)C[C@@H]1C` [Example I-219, Isopropyl (S)-4-acetyl-6-cyano-3-methyl-7-(4-(methylsulfonyl)phenyl)-3,4-dihydroquinoxaline-1(2H)-carboxylate], the IC50 in the experiment with MV4-11 cells is more than 500 nM; at BRD4 BD2, more than 500 nM; on BRD4 BD1, 1000 to 10000 nM.
`CCCS(=O)(=O)c1ccc(-c2ccc3c(c2)N(C(=O)OC2CCCCC2)C[C@H](C)N3C(C)=O)cc1` [Example I-1235]: the IC50 with MV4-11 cells is 100 to 500 nM; at BRD4 BD2, 50 to 500 nM; on BRD4 BD1, 100 to 1000 nM.
For `CCOC(=O)N1C[C@H](C)N(C(C)=O)c2ccc(-c3ccc(S(=O)(=O)NC(C)(C)C)cc3)cc21` [Example I-1129], the figures for the IC50 with MV4-11 cells, on BRD4 BD2 and at BRD4 BD1 were 100 to 500 nM, 50 to 500 nM and 1000 to 10000 nM, respectively.
